Data published in publication PMC11165695 (Nature methods, 2024).

Key:
SJSA-1 cells = assay: Apoptosis induction / caspase-3/7 activation; format: cell-based; settings: Supplementary Figure 14
[1] = tested on: alkaline phosphatase (ALP); settings: pNPP 200 μM, ALP 0.5 U/mL, PBS, room temperature, UV absorbance 405 nm

SMILES	apoptosis induction (SJSA-1 cells)	initial speed (v0), standard substrate [1] [nmol/min]
COc1cccc2c1C(=O)c1c(O)c3c(c(O)c1C2=O)C[C@@](O)(C(=O)CO)C[C@@H]3O[C@H]1C[C@H](N)[C@H](O)[C@H](C)O1 [Doxorubicin]	efficiently induces apoptosis	
O=[N+]([O-])c1ccc(OP(=O)(O)O)cc1 [P-nitrophenyl phosphate]		0.53
